Each structure is given as a SMILES string.

For five compounds, IC50 results are on record in ChEMBL document CHEMBL5728460, “Pyrimidine compounds and pyrimido indole compounds and methods of use” (2021).

For one experiment, the target named is T1, Dihydrofolate reductase (Homo sapiens, UniProt P00374).
T1 sequence (P00374 whole entry): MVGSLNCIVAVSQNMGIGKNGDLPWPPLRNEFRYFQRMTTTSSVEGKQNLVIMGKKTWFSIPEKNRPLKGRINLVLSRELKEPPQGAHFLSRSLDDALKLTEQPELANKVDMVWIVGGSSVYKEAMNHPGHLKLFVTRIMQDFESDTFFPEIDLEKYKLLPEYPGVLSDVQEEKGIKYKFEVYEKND
Kind of experiment: TBD: TBD.

For experiment [1], the target named is Vascular endothelial growth factor receptor 2 (Homo sapiens, UniProt P35968). In words: TBD: TBD.
Chain of Vascular endothelial growth factor receptor 2 (P35968 whole entry): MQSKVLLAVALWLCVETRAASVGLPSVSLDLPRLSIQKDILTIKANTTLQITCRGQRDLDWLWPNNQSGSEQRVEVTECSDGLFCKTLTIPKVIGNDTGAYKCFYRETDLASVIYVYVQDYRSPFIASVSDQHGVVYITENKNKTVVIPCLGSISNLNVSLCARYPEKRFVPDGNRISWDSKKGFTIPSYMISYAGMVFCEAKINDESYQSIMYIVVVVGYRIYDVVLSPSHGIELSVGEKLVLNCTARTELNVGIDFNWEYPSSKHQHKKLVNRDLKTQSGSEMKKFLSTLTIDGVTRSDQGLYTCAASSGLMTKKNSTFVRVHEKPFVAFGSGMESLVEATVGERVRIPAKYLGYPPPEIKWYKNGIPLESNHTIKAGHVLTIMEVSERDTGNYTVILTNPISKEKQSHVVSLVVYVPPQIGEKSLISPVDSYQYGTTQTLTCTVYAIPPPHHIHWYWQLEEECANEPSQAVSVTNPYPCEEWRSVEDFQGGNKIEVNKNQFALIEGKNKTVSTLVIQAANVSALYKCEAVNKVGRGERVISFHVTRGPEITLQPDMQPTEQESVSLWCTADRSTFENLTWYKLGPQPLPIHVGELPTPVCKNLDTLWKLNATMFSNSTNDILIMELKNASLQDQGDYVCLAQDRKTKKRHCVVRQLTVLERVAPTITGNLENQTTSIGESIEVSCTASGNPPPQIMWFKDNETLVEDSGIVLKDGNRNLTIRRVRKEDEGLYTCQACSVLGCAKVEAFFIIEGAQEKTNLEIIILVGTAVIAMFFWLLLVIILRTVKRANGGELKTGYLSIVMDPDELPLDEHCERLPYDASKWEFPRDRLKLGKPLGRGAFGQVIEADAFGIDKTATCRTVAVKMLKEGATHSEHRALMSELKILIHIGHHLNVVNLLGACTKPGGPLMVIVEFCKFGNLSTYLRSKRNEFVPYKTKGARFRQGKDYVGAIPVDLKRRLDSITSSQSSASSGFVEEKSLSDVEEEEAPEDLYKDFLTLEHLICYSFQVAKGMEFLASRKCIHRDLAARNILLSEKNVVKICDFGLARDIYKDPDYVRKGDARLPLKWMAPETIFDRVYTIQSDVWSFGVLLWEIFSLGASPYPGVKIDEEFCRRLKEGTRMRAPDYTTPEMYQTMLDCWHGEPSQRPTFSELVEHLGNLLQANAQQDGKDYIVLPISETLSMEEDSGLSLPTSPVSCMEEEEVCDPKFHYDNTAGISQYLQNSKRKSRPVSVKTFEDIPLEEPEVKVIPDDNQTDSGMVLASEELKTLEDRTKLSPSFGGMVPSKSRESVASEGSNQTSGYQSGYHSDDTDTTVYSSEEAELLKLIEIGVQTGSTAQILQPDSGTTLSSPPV
For experiment [2], the target named is Epidermal growth factor receptor (Homo sapiens, UniProt P00533). In words: TBD: TBD.
Chain of Epidermal growth factor receptor (P00533 whole entry): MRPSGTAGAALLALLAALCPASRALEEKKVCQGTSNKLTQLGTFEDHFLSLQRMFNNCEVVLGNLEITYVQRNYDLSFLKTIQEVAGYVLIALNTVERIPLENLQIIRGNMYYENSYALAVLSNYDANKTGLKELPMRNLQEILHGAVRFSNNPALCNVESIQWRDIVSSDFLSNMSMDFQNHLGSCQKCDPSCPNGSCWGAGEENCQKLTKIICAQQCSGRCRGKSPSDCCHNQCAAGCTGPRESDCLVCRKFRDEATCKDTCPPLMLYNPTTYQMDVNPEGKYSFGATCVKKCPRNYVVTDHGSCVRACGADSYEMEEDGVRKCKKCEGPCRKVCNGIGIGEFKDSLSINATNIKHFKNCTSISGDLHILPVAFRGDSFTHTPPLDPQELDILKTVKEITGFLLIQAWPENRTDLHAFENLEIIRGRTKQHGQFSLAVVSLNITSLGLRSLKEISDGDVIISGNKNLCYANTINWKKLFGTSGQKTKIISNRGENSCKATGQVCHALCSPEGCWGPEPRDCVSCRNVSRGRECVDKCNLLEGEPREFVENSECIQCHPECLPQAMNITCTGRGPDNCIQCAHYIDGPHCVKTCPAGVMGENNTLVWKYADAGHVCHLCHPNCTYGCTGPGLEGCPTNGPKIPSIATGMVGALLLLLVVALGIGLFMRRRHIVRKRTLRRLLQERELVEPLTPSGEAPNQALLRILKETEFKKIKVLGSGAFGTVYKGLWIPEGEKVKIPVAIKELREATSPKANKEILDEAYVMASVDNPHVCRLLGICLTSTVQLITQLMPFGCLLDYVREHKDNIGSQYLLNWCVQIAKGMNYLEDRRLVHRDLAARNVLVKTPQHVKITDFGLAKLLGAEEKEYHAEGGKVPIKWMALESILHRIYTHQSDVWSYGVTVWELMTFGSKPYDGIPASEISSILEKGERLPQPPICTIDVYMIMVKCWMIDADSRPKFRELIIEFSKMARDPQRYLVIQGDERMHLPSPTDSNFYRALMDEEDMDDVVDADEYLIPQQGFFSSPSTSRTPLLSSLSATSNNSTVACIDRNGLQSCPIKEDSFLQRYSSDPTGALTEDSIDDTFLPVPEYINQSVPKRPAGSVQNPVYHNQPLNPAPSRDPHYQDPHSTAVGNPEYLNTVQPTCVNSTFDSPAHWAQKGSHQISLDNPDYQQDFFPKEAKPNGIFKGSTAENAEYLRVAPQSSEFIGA
Experiment [3] deals with Vascular endothelial growth factor receptor 1 (Homo sapiens, UniProt P17948). Kind of experiment: TBD: TBD.
Chain of Vascular endothelial growth factor receptor 1 (P17948 whole entry): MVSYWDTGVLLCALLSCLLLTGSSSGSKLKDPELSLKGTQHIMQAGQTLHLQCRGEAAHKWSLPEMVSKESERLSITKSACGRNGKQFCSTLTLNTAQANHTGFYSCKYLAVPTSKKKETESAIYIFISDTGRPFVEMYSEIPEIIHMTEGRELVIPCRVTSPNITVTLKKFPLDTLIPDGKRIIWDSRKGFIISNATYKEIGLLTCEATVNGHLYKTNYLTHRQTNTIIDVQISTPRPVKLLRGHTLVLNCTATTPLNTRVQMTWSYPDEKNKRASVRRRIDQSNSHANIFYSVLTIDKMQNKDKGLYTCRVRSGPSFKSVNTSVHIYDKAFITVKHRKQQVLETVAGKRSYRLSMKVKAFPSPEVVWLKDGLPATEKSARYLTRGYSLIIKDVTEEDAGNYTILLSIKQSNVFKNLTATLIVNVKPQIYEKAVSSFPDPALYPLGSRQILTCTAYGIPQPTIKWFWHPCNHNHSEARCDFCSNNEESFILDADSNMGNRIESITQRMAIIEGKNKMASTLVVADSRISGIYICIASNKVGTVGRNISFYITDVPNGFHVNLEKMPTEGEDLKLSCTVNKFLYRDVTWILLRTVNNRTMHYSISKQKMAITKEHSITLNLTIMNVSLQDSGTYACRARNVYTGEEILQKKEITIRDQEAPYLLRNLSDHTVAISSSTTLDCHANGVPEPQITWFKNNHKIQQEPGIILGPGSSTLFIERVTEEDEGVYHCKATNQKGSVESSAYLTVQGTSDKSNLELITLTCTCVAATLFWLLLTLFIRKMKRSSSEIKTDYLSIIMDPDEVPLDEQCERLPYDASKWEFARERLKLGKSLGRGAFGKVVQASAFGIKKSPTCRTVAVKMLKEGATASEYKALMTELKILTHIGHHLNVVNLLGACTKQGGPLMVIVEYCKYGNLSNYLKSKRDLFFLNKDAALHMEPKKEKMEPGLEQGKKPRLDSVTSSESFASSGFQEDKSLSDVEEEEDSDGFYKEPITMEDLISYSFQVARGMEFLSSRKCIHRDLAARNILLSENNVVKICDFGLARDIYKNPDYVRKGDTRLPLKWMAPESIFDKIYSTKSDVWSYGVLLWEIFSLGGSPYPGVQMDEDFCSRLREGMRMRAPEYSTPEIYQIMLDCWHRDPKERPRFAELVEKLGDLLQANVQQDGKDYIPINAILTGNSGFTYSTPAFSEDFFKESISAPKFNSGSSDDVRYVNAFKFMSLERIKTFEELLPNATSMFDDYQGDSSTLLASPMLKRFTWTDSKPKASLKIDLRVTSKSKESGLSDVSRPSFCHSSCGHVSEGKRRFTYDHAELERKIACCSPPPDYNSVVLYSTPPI
The target of experiment [4] is Platelet-derived growth factor receptor beta (Homo sapiens, UniProt P09619). Kind of experiment: TBD: TBD.
Chain of Platelet-derived growth factor receptor beta (P09619 whole entry): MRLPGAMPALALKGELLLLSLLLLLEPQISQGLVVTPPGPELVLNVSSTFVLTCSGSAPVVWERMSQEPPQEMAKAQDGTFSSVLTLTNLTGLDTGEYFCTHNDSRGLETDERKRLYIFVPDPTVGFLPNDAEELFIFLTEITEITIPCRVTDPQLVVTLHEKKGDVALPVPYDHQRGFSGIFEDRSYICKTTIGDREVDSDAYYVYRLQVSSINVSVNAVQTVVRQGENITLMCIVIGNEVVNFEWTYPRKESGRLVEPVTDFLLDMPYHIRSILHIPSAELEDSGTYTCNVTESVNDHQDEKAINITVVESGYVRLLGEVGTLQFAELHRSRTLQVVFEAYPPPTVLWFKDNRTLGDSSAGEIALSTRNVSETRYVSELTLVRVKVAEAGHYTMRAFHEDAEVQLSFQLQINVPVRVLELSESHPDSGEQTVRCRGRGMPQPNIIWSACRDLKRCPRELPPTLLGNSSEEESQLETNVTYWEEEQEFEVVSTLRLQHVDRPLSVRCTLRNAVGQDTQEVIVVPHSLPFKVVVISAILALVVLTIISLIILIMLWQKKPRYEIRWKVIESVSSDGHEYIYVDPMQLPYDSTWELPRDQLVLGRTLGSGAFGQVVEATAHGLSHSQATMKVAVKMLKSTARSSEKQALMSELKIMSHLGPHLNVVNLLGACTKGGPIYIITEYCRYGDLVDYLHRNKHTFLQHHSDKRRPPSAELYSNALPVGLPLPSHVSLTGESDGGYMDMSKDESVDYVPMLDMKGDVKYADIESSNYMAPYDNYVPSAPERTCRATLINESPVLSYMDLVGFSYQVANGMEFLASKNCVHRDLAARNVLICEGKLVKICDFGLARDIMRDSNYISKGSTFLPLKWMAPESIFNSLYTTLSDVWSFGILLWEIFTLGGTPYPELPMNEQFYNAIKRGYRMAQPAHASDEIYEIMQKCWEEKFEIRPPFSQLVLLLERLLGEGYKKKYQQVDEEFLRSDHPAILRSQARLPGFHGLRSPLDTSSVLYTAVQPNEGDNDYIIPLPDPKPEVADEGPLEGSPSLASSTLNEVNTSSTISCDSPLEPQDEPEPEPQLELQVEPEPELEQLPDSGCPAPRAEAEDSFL
A short description of experiment [5]: TBD: TBD.

At Dihydrofolate reductase, `COc1ccc(Sc2c(C)c3c(N)nc(N)nc3n2C)cc1OC` showed an IC50 of 1.1 µM.
Take `COc1ccccc1Sc1sc2nc(N)nc(N)c2c1C`: the IC50 in experiment [1] came out at 56.3 µM; in experiment [2], 10.4 µM; in experiment [3], 160 µM; in experiment [4], 40.3 µM.
Turning to `COc1ccc(Sc2sc3nc(N)nc(N)c3c2C)cc1OC`, the IC50 in experiment [2] turned out to be 15.1 µM; in experiment [5], 3.9 µM; against Dihydrofolate reductase it was 0.91 µM.
With `COc1cc(C[C@H]2NCCc3cc(O)c(O)cc32)cc(OC)c1OC`, the IC50 in experiment [5] came out at 0.0021 µM.
In turn, `COc1ccc(Sc2sc3nc(N)nc(N)c3c2C)cc1` registered an IC50 against Dihydrofolate reductase of 1.41 µM.
